Experimental findings from ChEMBL document CHEMBL1144222, “Distinctive molecular inhibition mechanisms for selective inhibitors of human 11beta-hydroxysteroid dehydrogenase type 1” (Bioorg Med Chem, 2008) are described below.

SMILES strings stand for the structures.

The assay addresses 11-beta-hydroxysteroid dehydrogenase 1 (Homo sapiens, UniProt P28845). Description: Inhibition of FLAG tagged human recombinant 11beta-HSD1 reductase activity expressed in Trichoplusia ni Hi5 cells. It is filed as cell-based, BTI-TN-5B1-4.

Chain of 11-beta-hydroxysteroid dehydrogenase 1 (P28845 whole entry): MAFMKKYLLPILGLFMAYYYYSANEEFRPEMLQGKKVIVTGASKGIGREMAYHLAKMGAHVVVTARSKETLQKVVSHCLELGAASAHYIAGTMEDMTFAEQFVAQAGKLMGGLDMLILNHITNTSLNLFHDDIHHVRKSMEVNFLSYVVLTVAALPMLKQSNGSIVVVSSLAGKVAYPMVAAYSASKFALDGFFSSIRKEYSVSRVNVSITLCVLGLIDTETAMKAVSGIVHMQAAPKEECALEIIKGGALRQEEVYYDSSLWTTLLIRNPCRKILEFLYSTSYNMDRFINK

For `CC(C)n1c(-c2ccc(OC(F)(F)F)cc2)nnc1C1(c2ccc(F)cc2)CC1`, the IC50 (commonly the midpoint of a concentration-inhibition curve) turned out to be 1.6 nM.
